Numbering of substitutions follows the chain as printed. Read-outs that look alike come from different tables or passages of the source.
Legend:
CYP2C8 [1] = target: T1, CYP2C8 (Homo sapiens, UniProt P10632); test: in vitro; conditions: microsomes, pH 7.4
T1 sequence (P10632 1-490): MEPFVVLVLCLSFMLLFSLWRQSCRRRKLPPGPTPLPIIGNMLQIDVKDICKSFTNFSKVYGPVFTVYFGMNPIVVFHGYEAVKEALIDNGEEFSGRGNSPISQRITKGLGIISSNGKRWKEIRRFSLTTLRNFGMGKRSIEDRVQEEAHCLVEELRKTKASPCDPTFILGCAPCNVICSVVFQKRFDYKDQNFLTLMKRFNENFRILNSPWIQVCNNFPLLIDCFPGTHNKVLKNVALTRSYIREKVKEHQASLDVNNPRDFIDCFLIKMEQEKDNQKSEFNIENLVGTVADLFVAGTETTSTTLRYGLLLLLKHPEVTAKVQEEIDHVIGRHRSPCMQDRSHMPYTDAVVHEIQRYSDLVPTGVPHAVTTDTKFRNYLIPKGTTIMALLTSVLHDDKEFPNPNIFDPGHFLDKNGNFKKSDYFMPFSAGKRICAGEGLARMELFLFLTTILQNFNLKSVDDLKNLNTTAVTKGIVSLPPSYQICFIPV

[2] = tested on: CYP isoforms (eight major CYPs except for CYP2B6); test: Time-dependent inhibition of CYP isoforms in pooled HLMs; assay type: in vitro ADME, human; conditions: 50 μM efavirenz
CYP3A = CYP3A (Homo sapiens, UniProt P08684); test: Inhibition of CYP3A; assay type: in vitro ADME; conditions: pooled human liver microsomes, pH 7.4, probe testosterone (6-β hydroxylation), 10 μM, inhibition of CYP3A activity, 50 μM efavirenz, pooled HLMs, 10 μM testosterone
CYP2C9 [3] = target: T2, CYP2C9 (Homo sapiens, UniProt P11712); test: Inhibition of CYP2C9; assay type: in vitro ADME
CYP2C8 [4] = target: T1, CYP2C8; test: Inhibition of CYP2C8; conditions: pooled HLMs; substrate amodiaquine
CYP2C8 [5] = target: T3, CYP2C8 (Homo sapiens, UniProt P10632, K399R/R139K); test: Inhibition of CYP2C8
T3 sequence (P10632 1-490 R139K/K399R): T1 sequence (P10632 1-490) with R139K, K399R

CYP2C8 [6] = conditions: expressed CYPs; cited from earlier work
CYP2B6 [7] = conditions: cited from earlier work
CYP2C19 [8] = target: T4, CYP2C19 (Homo sapiens, UniProt P33261); test: Inhibition of CYP2C19; assay type: in vitro ADME
CYP2A6 = target: T5, CYP2A6 (Homo sapiens, UniProt P11509); test: Inhibition of CYP2A6; assay type: in vitro ADME; conditions: pooled human liver microsomes, pH 7.4, probe coumarin (7-hydroxylation)
T5 sequence (P11509 1-494): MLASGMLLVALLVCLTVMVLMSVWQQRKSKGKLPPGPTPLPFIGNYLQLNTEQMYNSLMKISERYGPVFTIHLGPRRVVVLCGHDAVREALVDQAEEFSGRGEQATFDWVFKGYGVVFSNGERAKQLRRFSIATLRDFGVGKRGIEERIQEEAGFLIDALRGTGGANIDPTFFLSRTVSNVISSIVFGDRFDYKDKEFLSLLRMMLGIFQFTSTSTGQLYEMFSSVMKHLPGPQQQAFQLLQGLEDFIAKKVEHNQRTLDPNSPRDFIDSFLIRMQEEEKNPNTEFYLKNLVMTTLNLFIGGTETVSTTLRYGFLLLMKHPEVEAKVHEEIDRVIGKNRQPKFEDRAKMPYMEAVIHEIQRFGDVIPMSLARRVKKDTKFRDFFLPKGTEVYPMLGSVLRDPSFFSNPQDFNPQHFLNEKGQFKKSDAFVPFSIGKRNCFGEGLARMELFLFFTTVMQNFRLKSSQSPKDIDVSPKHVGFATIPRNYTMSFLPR

CYP1A2 = CYP1A2 (Homo sapiens, UniProt P05177); test: Inhibition of CYP1A2; conditions: 50 μM phenacetin
expressed CYP2B6 [9] = conditions: cited from earlier work
CYP2B6 [10] = target: T6, CYP2B6 (Homo sapiens, UniProt P20813); conditions: substrate bupropion
T6 sequence (P20813 1-491): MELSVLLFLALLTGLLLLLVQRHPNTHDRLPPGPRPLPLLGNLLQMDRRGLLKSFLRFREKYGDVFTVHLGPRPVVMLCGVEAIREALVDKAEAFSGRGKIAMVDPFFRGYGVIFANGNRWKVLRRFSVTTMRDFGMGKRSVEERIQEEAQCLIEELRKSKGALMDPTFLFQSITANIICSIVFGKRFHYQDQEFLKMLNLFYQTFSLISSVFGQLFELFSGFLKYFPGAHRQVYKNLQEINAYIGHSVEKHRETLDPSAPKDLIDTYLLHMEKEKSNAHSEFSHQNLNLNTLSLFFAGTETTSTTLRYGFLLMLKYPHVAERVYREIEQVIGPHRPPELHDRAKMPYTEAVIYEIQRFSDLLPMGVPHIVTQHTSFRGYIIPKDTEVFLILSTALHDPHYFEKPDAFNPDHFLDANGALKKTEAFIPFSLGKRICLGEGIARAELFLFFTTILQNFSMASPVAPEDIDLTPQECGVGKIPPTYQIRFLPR

[11] = cited from earlier work
expressed CYP2C8 = target: T7, expressed CYP2C8 (Homo sapiens, UniProt P10632); test: Inhibition of expressed CYP2C8; assay type: in vitro ADME
T7 sequence (P10632 1-490): T1 sequence (P10632 1-490)

UGT2B7 = conditions: in vitro; cited from earlier work
CYP2D6 = CYP2D6 (Homo sapiens, UniProt P10635); test: Inhibition of CYP2D6; assay type: in vitro ADME; conditions: pooled human liver microsomes, pH 7.4, probe dextromethorphan (O-demethylation)
CYP2C9 [12] = target: T2, CYP2C9; conditions: in vitro study; cited from earlier work
[13] = Efavirenz plasma pharmacokinetics; assay type: in vivo; conditions: human, po, 600 mg
expressed CYP2B6 [14] = target: T8, expressed CYP2B6 (Homo sapiens, UniProt P20813); test: Inhibition of expressed CYP2B6; assay type: in vitro ADME; conditions: substrate bupropion
T8 sequence (P20813 1-491): T6 sequence (P20813 1-491)

CYP2C19 [15] = target: T4, CYP2C19; conditions: fraction of substrate metabolized by the inhibited CYP pathway (CYP2C19); cited from earlier work
CYP2C9 [16] = target: T2, CYP2C9; conditions: AUCI/AUC with multiple doses of efavirenz (steady state Cmax); CYP2C9 substrates
CYP2C9 [17] = target: T2, CYP2C9; conditions: fraction of substrate metabolized by the inhibited CYP pathway (CYP2C9); cited from earlier work

T2 sequence (P11712 whole entry): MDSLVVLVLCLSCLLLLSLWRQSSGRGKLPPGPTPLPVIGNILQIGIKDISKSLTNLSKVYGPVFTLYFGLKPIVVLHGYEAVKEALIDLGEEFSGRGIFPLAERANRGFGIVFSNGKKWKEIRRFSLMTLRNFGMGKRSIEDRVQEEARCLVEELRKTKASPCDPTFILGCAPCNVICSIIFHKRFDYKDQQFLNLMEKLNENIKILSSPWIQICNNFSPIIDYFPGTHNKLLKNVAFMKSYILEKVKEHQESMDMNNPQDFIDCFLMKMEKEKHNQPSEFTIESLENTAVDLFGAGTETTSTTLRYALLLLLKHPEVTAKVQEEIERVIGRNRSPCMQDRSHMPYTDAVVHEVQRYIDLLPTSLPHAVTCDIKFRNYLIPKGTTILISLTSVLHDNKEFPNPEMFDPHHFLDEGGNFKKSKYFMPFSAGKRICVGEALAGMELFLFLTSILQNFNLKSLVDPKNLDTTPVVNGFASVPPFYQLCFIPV
T4 sequence (P33261 whole entry): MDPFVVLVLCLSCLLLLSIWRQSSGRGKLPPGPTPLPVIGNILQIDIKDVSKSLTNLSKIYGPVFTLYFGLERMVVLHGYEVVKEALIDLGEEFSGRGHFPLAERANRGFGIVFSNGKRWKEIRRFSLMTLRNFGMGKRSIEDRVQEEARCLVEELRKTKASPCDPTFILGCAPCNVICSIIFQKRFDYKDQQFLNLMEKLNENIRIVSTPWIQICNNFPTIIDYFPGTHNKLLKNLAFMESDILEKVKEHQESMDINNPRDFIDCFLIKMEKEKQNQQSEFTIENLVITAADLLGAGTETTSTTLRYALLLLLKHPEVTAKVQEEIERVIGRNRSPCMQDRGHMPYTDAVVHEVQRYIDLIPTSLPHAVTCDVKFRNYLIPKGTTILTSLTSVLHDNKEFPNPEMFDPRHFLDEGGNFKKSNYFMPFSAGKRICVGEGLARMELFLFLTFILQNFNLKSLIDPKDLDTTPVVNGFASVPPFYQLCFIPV
Sequence of CYP1A2 (P05177 whole entry): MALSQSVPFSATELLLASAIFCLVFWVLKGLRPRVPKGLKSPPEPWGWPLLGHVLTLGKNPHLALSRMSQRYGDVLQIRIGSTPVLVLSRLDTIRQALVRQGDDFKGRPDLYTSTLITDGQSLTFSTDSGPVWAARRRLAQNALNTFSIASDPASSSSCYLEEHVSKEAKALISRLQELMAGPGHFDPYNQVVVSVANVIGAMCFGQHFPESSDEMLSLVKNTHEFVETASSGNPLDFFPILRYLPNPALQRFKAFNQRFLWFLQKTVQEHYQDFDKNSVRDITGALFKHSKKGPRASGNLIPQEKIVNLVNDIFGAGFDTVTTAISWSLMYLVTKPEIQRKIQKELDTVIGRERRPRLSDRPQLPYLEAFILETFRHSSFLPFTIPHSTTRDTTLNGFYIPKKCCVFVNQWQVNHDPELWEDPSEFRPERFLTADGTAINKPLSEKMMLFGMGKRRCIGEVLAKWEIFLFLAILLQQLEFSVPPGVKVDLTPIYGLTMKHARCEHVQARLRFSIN
Sequence of CYP2D6 (P10635 whole entry): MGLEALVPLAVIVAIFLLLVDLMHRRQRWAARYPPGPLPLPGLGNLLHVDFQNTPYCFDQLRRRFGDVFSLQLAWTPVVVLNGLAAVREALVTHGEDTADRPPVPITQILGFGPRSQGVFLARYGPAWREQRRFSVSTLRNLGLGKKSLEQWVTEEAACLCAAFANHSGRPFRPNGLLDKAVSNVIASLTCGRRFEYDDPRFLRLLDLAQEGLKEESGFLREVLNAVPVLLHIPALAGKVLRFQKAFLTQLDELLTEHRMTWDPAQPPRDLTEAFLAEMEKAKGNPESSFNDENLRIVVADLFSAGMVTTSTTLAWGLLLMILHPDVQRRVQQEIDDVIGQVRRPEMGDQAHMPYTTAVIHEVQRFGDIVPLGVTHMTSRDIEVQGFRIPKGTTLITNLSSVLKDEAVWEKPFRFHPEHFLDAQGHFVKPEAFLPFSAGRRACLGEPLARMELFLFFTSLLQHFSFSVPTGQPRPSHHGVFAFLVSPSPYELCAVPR
Sequence of CYP3A (P08684 2-503): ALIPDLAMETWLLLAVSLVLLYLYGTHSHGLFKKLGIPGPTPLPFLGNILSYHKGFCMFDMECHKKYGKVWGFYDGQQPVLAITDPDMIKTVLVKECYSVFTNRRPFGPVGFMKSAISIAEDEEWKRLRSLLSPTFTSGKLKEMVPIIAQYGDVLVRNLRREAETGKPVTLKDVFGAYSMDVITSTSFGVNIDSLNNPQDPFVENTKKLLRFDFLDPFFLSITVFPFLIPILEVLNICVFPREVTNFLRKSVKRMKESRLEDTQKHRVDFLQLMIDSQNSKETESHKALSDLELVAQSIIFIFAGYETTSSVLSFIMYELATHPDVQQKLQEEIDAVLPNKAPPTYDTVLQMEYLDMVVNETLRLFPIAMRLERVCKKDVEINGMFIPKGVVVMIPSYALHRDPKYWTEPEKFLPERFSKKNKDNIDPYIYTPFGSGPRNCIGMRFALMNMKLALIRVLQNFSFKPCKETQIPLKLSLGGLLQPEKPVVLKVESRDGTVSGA

In the case of `O=C1Nc2ccc(Cl)cc2[C@@](C#CC2CC2)(C(F)(F)F)O1` [efavirenz, Efavirenz], the Ki (CYP2C8 [1]) is reported as 4.78 ± 2.24 µM, the “time-dependent inhibition of CYP activity” value ([2]; preincubation for 30 min) is reported as “only marginally inhibited” and the time-dependent inactivation ([2]; shorter preincubation times (5-15 min)) is reported as “did not show any indication of time-dependent inactivation”. For the same compound, the inhibition at 50 μM (CYP3A) was greater than 20%, the Ki (CYP2C9 [3]) was 19.5 ± 2.78 µM and the inhibition model (CYP2C9 [3]; pooled HLMs, substrate tolbutamide) was “non-competitive”. The inhibition model (CYP2C8 [4]) was “competitive”, the Ki (CYP2C8 [5]) was 4.8 ± 0.35 µM and the inhibition model (CYP2C8 [5]; HLMs with CYP2C8*3/*3, substrate amodiaquine) was “competitive”. The IC50 (CYP2C8 [6]) was 4 µM, the Km (CYP2B6 [7]) was 13 to 20 µM and the Ki (CYP2C19 [8]) was 21.3 ± 2.57 µM. The inhibition model (CYP2C19 [8]; pooled HLMs, substrate S-mephenytoin) was “competitive”, the inhibition at 10 μM (CYP2A6) was less than 10% and the inhibition at 50 μM (CYP2A6; 10 μM) was less than 10%. The “inhibition of CYP1A2 activity” value (CYP1A2; efavirenz 10 and 50 μM, pooled HLMs) was “did not indicate that efavirenz inhibits CYP1A2 activity”, the “KI value (time-dependent inhibition)” value (expressed CYP2B6 [9]) was 30 µM and the inhibition model (CYP2B6 [10]; CMV negative HLMs) was “competitive”. The inhibition model (CYP2B6 [10]; pooled HLMs) was “competitive”, the “Ka absorption rate constant” value [11] was 0.3 h⁻¹ and the Ki (expressed CYP2C8) was 6.05 ± 2.86 µM. For the same compound, the inhibition model (expressed CYP2C8; expressed CYP2C8, substrate amodiaquine) was “competitive”, the “inhibition of UGT2B7” value (UGT2B7) was “moderate inhibitor” and the inhibition at 10 μM (CYP2D6) was less than 10%. The inhibition at 50 μM (CYP2D6; 10 μM) was less than 10%, the IC50 (CYP2C9 [12]) was roughly 15 µM and the Cmax [13] was 4.6 to 8.4 µM. For the same compound, the inhibition model (expressed CYP2B6 [14]) was “competitive”.
In the case of `COc1ccc2[nH]c([S+]([O-])Cc3ncc(C)c(OC)c3C)nc2c1` (stereo not shown) [Omeprazole], the fm (CYP2C19 [15]) is listed as 0.87 [26]).
In the case of `CC(=O)C[C@@H](c1ccccc1)c1c(O)c2ccccc2oc1=O` [S-Warfarin], the “Predicted AUC Ratio” value (CYP2C9 [16]) is reported as 1.7 -2.0.
In the case of `CC(NC(C)(C)C)C(=O)c1cccc(Cl)c1` (stereo not shown) [bupropion], the Km (CYP2B6 [7]; bupropion as CYP2B6 substrate) is given as 90 to 130 µM.
For `O=C1Nc2c(O)cc(Cl)cc2[C@@](C#CC2CC2)(C(F)(F)F)O1` [8-hydroxyefavirenz], the “inhibition of CYP1A2” value (CYP1A2; 8-hydroxyefavirenz up to 10 μM (0.5 to 10 μM), pooled HLMs 1 mg/ml, 30 min) was ~ 20%.
In the case of `O=C1NC(=O)C(c2ccccc2)(c2ccccc2)N1` [Phenytoin], the fm (CYP2C9 [17]) is listed as 0.90 [57]) and the “Predicted AUC Ratio” value (CYP2C9 [16]) is listed as 1.7 -2.0.

Reference: paper PMC4075192 (Drug metabolism and pharmacokinetics, 2013)
